Assay results published in patent US6911450B1, “Pyrimidine acyclonucleoside derivatives, preparation method and use thereof” (Universite de Geneve, priority 2001, dated 2005).
Read-outs that look alike come from different tables or passages of the source.

Key:
[1] = system: HIV-1 lai strain; experiment: Anti-HIV test on PBMC, viral replication measured by Reverse Transcriptase (RT) activity in culture supernatants; assay type: cell-based; conditions: for IC50 / IC90: Human immunodeficiency virus 1, 168 h, against HIV-Lai on PBMC, 7 days, RT activity assay; for activity relative to that of its congeners or of its rivals: from Table 1
Procedure: The object of the screening is to evaluate the antiretroviral activity of the compounds of the present invention and of the Comparative Compounds on the HIV-1 lai strain cultivated on peripheral blood mononucleated cells (PBMC). For this purpose, the test compounds were incubated for seven days (duration of the anti-HIV test) with the PBMC in exponential phase of growth. The ability of the compounds to inhibit the viral replication was then measured in the culture supernatants either by an assay of the “Reverse Transcriptase” (RT) activity with the kit RetroSys TR (INNOVAGEN) or by an assay of the protein P24 with the kit Innotest HIV Antigen mAb Screening (IMMUNOGENETICS). The concentrations of the test compound causing 50 and 90% inhibition of the viral replication were determined. It concerns inhibition concentrations IC50 and IC90, respectively. The PBMC were isolated as described in Ulmer and col., Immunobiology, 166(3), 238-250 (1984) from a healthy donor by a Ficoll gradient (Nicomed Pharma AS). The PBMC were activated with phytohemagglutinine for three days and then cultivated in a 96-well plate, in a base medium (RPMI) supplemented with recombinant human Interleukin-2. Throughout the culture, the cells were maintained at 37° C., in an atmosphere saturated in humidity, and under 5% CO2. The PBMC were pre-treated for one hour in the presence of the test compounds at various concentrations, and then infected with 100 TCID50 of HIV-1-Lai [S. Wain-Hobson and col., Science 17, 252 (5008): 961-965 (1991)]. Three days after the infection with HIV-1, the half of the culture medium was changed and, at the day 7, the supernatants were taken and frozen at −20° C. Then, the viral replication was measured: a) by assaying the “Reverse Transcriptase” (RT) activity in the culture supernatants by means of the kit RetroSys (Innovagen). The RT contained in the supernatant synthesizes, in the presence of bromodeoxyuridine triphosphate (BrdUTP), a complementary strand DNA to a matrix immobilized on the bottom of the wells of a 96-well plate. The incorporation of BrdU is quantified by the fixation of an antibody anti-BrdU conjugated to the alkaline phosphatase. The activity of the attached alkaline phosphatase, measured by colorimetry, is proportional to the RT activity in the culture supernatant. The results described below are the results of at least two experiments which are distinct and carried out in triplicate.

[2] = Cytotoxicity assay revealed by MTT after seven days of culture; assay type: cell-based, human; conditions: human, PBMC, 50% diminution of growth and viability
Procedure: (§1) Concurrently to the screening, and in the same conditions, cytotoxicity assays of the test compounds were carried out.
(§2) This assay has allowed to determine the concentration of the product causing a diminution of 50% of the growth and the viability of PBMC (CC50).
(§3) The PBMC were isolated as described in Ulmer and col., Immunobiology, 166(3), 238-250 (1984) from a healthy donor by a Ficoll gradient (Nicomed Pharma AS).
(§4) The PBMC were activated with phytohemagglutinine for three days and then cultivated in a 96-well plate, in a base medium (RPMI) supplemented with recombinant human Interleukin-2.
(§5) Throughout the culture, the cells were maintained at 37° C., in an atmosphere saturated in humidity, and under 5% CO2.

[3] = system: HIV-1; conditions: cited from earlier work; for activity against HIV-1: prior art
[4] = Combination test with AZT, ddI and ddC; assay type: cell-based
[5] = system: Bone marrow cells of Balb/c mice; experiment: Toxicity test on bone marrow cells (proliferation by Trypan blue count, differentiation by flow cytometry); assay type: cell-based; conditions: for cell proliferation / proportions of lymphocytes B, myelocytes, neutrophiles and macrophages induced by the cytokines: mouse bone marrow cells, 5 days; for cell proliferation: 1×10^−12 to 1×10^−5 M, versus absence of compound; for proportions of lymphocytes B, myelocytes, neutrophiles and macrophages induced by the cytokines: whatever the concentration, presence versus absence of compound
Procedure: Toxicity tests of Compounds No. 3 and 5 of the present invention were further carried out on bone marrow cells according to the following working method. Bone marrow cells of Balb/c mice were cultivated at the rate of 5×10^5 cells/ml in cultures of 1 ml in RPMI 1640 medium supplemented with 1 mM glutamine, 10% fetal calf serum, penicillin and streptomycin (GIBCO, USA). The cells were stimulated by addition of 1 ng/ml of Stem cell factor (c-kit ligand), IL3 and GM-CSF (Pharmingen, USA) in the presence of increasing concentrations of the Compounds 3 and 5 of the present invention ranging from 1×10^−12 to 1×10^−5 M. After 5 days of culture at 37° C., 5% CO2, the cells were recovered. The proliferation was evaluated by numeration of living cells in the presence of Trypan blue. The differentiation of the cells was evaluated by Flow Cytometry (Facs-Calibur, BECTON DICKINSON, USA) by double labeling of the cells with antibodies anti-CD38 conjugated with phycoerythrine (PE), anti-Gr1 conjugated with fluoresceine 5 (Fl), anti-Gr1-PE and anti-CD11b-Fl (Pharmingen, USA).

[6] = system: PBMC; experiment: Cytotoxicity assay revealed by MTT after seven days of culture; assay type: cell-based, human; conditions: 7 days, 50% diminution of growth and viability
Procedure: as §1, §2, §3, §4, §5

| Structure (SMILES) | IC50 [1] | IC90 [1] | CC50 at 7 days [2] | melting point | further results |
| --- | --- | --- | --- | --- | --- |
| CCc1c(Cc2cc(C)cc(C)c2)n(COCCN(O)C(N)=O)c(=O)[nH]c1=O [Comparative 1, 1-(2-N^1-hydroxyureidoethyloxymethyl)-6-(3,5-dimethylbenzyl)-5-ethyluracil] | 0.92 nM | 15 nM | > 500000 nM | 147 to 148 °C |  |
| CCc1c(Cc2cc(C)cc(C)c2)n(COCCCCN(O)C(N)=O)c(=O)[nH]c1=O [Comparative 2, 1-(4-N^1-hydroxyureidobutyloxymethyl)-6-(3,5-dimethylbenzyl)-5-ethyluracil] | 2.3 nM | 30 nM | > 50000 nM | 148 to 150 °C |  |
| CCc1c(Cc2ccccc2)n(COCCN(O)C(N)=O)c(=O)[nH]c1=O [Comparative 3, 1-(2-N^1-hydroxyureidoethyloxymethyl)-6-benzyl-5-ethyluracile] | 70 nM |  | > 250000 nM | 276 to 277 °C | IC50 ([3]; against HIV-1, prior art): 70 nM; activity against HIV-1 [3]: only very moderately active |
| CCOCn1c(Cc2ccccc2)c(C(C)C)c(=O)[nH]c1=O [Comparative 4, 1-ethyloxymethyl-6-benzyl-5-isopropyluracil, reference compound] | 2 nM |  | > 30000 nM |  |  |
| CCc1c(Cc2cc(C)cc(C)c2)n(COCCCNC(=O)NO)c(=O)[nH]c1=O [Compound 1, 1-(3-N^3-hydroxyureidopropyloxymethyl)-6-(3,5-dimethylbenzyl)-5-ethyl-uracil] | 2.3 nM | 9 nM | 260000 nM |  |  |
| CCc1c(Cc2cc(C)cc(C)c2)n(COCCCN(O)C(N)=O)c(=O)[nH]c1=O [Compound 2, 1-(3-N1-hydroxyureidopropyloxymethyl)-6-(3,5-dimethylbenzyl)-5-ethyl-uracil] | 0.24 nM | 1.7 nM | > 300000 nM | 165 to 167 °C | synergy with AZT, ddI and ddC [4]: exhibited a synergy |
| Cc1cc(C)cc(Cc2c(C(C)C)c(=O)[nH]c(=O)n2COCCCN(O)C(N)=O)c1 [Compound 3, 1-(3-N^1-hydroxyureidopropyloxymethyl)-6-(3,5-dimethylbenzyl)-5-isopropyluracil] |  | 0.0039 nM | 220000 nM | 88 to 90 °C | activity relative to that of its congeners or of its rivals [1]: 100,000 times; toxic effects on bone marrow cells of mice ([5]; even at concentrations 1×10^6 time higher than those inhibiting HIV replication in human lymphocytes in vitro): no significant toxic effects; cell proliferation [5]: identical to the one observed in the absence; proportions of lymphocytes B, myelocytes, neutrophiles and macrophages induced by the cytokines [5]: identical in the presence or in the absence |
| CC(=O)ON(CCCOCn1c(Cc2cc(C)cc(C)c2)c(C(C)C)c(=O)[nH]c1=O)C(N)=O [Compound 4, 1-(3-N^1-acetoxyureidopropyloxymethyl)-6-(3,5-dimethylbenzyl)-5-isopropyluracile] | 0.03 nM | 0.6 nM | 30000 nM | 77 to 79 °C |  |
| Cc1cc(C)cc(Cc2c(C(C)C)c(=O)[nH]c(=O)n2COCCCN(OC(=O)C(C)(C)C)C(N)=O)c1 [Compound 5, 1-(3-N^1-pivaloyloxyureidopropyloxymethyl)-6-(3,5-dimethylbenzyl)-5-isopropyluracil] |  |  |  |  | activity relative to that of its congeners or of its rivals [1]: 1,000,000 times; CC50 [6]: 65000 nM; toxic effects on bone marrow cells of mice [5]: no significant toxic effects; cell proliferation [5]: identical to the one observed in the absence; proportions of lymphocytes B, myelocytes, neutrophiles and macrophages induced by the cytokines [5]: identical in the presence or in the absence |
| Cc1cn(C(C)OCCN(O)C(N)=O)c(=O)[nH]c1=O (stereo not shown) [Formula B] |  |  |  |  | activity against HIV-1 [3]: totally inactive |
